Test results taken from ChEMBL document CHEMBL1201862, “PubChem BioAssay data set” (2004).
Activity calls are given as the source filed them.

Tests used:
P388 = experiment: cells; type: functional; settings: Mus musculus
P388/ADR = experiment: cells; type: functional; settings: Mus musculus
SN12K1 = experiment: cells; type: functional; settings: Homo sapiens
cells [1] = type: functional, cell-based
cells [2] = type: functional, cell-based; remark: listed apart in the source
[3] = Trypanosoma cruzi growth suppression in host cells – NIH3T3 host cells, beta-gal luminescence, confirmation (AID 2044); type: functional, cell-based;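 further: intracellular parasites grown in NIH/3T3 mouse fibroblasts as host cells; luminescent beta-galactosidase reporter signal from transgenic T. cruzi replicating inside host cells; inhibitors lower the luminescence signal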
[4] = reduction of Shn3 3'UTR-driven luciferase in osteoblasts – cell-based, Clone20 osteoblasts, firefly luciferase, cherry-picked, dose response (AID 624132); type: functional;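 further: firefly luciferase luminescence from reporter carrying the Shn3 3'UTR in osteoblasts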
[5] = loss of viability in HepG2 cells – cell-based, CellTiter-Glo, cherry-picked, cytotoxicity control for Shn3 inhibitor project, dose response (AID 624134); type: functional
[6] = non-specific 3'UTR reporter inhibition in Clone20-Shn3RL – cell-based, Renilla luciferase, cherry-picked, counter-screen for Shn3 inhibitor project, dose response (AID 624133); type: functional
[7] = NIH3T3 cell viability loss – ATP luminescence, mouse fibroblasts, counter-screen, dose response (AID 2010); type: functional, cell-based;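 further: cells exposed to compound for about 90 hours before reading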
Cytochrome P450 3A4 = Cytochrome P450 3A4 (Homo sapiens, UniProt P08684);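 further: CYP3A4 tested as one member of a cytochrome P450 panel screen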
Cytochrome P450 2D6 = Cytochrome P450 2D6 (Homo sapiens, UniProt P10635);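 further: CYP2D6 member of a cytochrome P450 panel assay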
Cytochrome P450 2C19 = Cytochrome P450 2C19 (Homo sapiens, UniProt P33261); experiment: Cytochrome panel assay with activity outcomes. Panel member name: p450-cyp2c19 Compounds with AC50 equal or less than 10 uM are considered active; type: functional; settings: read-out: AC50
[8] = blockade of melanocortin 4 receptor signaling – cell-based, plate reader, cherry pick, counter-screen for LGR2 antagonist project, dose response (AID 743444); type: functional;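 further: transfected HEK 293 cells stimulated with alpha-MSH peptide; potency of inhibitors of the alpha-MSH evoked signal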
[9] = blockers of bursicon-stimulated LGR2 cAMP reporter – cell-based, HEK293, CRE-luciferase reporter, cherry pick, set 2, dose response (AID 743343); type: functional;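 further: transfected cells were stimulated with diluted bursicon conditioned medium after compound addition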
HEK293 = experiment: EBV LMP1 TES2 canonical NF-kB signalling blockers – cell-based, HEK293, luciferase, cherry-pick, dose response (AID 588343); type: functional; settings: Homo sapiens
Cytochrome P450 1A2 = target: T1, Cytochrome P450 1A2 (Homo sapiens, UniProt P05177);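 further: PubChem cytochrome P450 panel assay, CYP1A2 panel member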
T1 sequence (P05177 whole entry): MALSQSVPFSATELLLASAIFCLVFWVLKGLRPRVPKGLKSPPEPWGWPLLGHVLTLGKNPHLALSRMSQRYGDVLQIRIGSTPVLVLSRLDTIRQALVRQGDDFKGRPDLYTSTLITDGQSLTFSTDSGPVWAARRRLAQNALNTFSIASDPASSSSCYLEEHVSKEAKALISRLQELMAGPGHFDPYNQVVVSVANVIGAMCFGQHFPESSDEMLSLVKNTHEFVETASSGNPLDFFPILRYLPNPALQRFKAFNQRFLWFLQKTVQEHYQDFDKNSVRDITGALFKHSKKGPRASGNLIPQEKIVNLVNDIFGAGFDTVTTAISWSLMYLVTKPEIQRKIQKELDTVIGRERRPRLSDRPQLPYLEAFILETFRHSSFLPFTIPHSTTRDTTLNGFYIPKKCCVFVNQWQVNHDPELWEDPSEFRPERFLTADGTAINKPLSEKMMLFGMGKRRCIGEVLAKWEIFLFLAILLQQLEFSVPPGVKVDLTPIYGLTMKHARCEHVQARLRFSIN

Cytochrome P450 2C9 = Cytochrome P450 2C9 (Homo sapiens, UniProt P11712)
[10] = luciferase reporter signal suppression in cells – H4 neuroglioma cells, luminescence, dose response (AID 1990); type: functional, cell-based
[11] = Luminescence Cell-Based Dose Confirmation HTS to Identify Inhibitors of Platelet Dense Granule Release. [Related pubchem assays: 1663 (Primary HTS), 1678 (Summary of Project)]; type: functional
[12] = Luminescence Cell-Based Dose Response HTS to Identify Inhibitors of 5'UTR Stem-Loop Driven Prion Protein mRNA Translation in H4 Neuroglioblastoma Cells. [Related pubchem assays: 1827 (Project Summary), 1813 (Primary HTS)]; type: functional
[13] = alpha-synuclein stem-loop luciferase translation blockers – H4 neuroglioma cells, luminescence, confirmation (AID 1988); type: functional, cell-based
[14] = target: Luciferin 4-monooxygenase (Photinus pyralis, UniProt P08659); experiment: inhibition of purified Photinus pyralis luciferase – biochemical, luminescence, dose response (AID 1891)
Streptokinase A = target: T2, Streptokinase A (Streptococcus pyogenes serotype M1, UniProt P10520); experiment: viability-normalized secreted streptokinase activity reduction – plasminogen activation absorbance, OD405, dose response (AID 1914); type: functional, Streptococcus pyogenes M1 GAS;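 further: secreted streptokinase activity via plasminogen activation per viability signal from cell pellet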
T2 sequence (P10520 whole entry): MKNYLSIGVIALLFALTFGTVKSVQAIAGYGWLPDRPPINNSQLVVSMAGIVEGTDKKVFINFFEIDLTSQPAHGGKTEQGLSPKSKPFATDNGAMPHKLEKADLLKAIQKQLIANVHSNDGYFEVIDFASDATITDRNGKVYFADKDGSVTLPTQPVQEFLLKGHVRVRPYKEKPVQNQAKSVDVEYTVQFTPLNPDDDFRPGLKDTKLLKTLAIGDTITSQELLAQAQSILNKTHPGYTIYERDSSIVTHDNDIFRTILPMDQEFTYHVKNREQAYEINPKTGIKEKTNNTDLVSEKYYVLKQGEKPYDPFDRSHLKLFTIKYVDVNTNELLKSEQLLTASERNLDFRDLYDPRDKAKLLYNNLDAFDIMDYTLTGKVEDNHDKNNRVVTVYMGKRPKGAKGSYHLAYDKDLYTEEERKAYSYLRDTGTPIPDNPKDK

[15] = Luminescence Cell-Based Dose Retest to Confirm Inhibitors of Cancer Stem Cells. [Related pubchem assays (depositor defined):AID2717, AID2721]; type: functional; settings: Homo sapiens
Streptococcus = experiment: GAS UMAA2166 growth inhibition – luminescence, BacTiterGlo, counter-screen for streptokinase expression inhibitor project, dose response (AID 1915); type: functional, organism-based;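 further: potency for reduction of bacterial viability or growth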
[16] = test system: Streptococcus sp. 'group A'; experiment: Streptococcus pyogenes SK(-)GAS viability under kanamycin – luminescence, BacTiterGlo, confirmation, counter-screen for streptokinase expression inhibitor project, dose response (AID 1900); type: functional, organism-based

Chain of Cytochrome P450 2D6 (P10635 whole entry): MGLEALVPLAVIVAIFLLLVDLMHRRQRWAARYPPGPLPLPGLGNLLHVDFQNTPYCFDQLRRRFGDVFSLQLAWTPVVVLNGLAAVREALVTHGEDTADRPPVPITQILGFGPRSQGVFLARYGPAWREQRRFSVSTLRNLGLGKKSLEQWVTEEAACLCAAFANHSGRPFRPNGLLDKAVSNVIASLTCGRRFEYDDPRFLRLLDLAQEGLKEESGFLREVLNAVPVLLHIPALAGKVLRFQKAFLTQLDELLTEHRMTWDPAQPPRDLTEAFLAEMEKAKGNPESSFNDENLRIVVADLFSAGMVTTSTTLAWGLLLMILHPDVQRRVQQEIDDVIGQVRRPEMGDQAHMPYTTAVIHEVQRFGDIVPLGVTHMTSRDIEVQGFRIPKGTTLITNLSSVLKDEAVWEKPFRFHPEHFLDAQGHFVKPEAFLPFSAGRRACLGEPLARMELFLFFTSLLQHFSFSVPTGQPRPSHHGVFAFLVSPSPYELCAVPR
Chain of Cytochrome P450 3A4 (P08684 whole entry): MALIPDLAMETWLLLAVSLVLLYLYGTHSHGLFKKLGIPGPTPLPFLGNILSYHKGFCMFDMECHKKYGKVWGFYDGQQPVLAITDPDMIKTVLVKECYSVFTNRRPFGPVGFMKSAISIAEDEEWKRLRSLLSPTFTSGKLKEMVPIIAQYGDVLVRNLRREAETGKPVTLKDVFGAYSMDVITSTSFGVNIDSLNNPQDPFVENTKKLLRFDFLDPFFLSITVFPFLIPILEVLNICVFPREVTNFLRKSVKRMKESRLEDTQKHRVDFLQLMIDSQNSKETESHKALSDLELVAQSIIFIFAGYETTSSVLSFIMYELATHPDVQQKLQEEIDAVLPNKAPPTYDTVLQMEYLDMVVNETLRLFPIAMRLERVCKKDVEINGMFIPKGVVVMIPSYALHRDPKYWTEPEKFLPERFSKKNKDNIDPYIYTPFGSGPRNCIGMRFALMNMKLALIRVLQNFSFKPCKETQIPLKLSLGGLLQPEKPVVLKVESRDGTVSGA
Chain of Cytochrome P450 2C9 (P11712 whole entry): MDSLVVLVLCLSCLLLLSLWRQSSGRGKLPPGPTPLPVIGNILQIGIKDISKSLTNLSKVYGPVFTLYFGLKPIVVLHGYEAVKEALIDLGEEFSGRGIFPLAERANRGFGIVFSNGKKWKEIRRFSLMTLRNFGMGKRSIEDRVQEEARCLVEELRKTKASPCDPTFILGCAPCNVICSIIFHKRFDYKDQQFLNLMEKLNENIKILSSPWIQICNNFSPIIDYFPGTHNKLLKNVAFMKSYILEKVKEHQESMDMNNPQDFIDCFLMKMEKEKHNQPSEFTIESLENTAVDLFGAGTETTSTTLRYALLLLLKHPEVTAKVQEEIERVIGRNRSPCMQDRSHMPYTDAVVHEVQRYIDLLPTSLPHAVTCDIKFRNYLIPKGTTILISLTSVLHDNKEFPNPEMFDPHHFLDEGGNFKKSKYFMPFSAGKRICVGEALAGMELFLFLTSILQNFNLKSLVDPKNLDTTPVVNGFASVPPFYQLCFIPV
Chain of Luciferin 4-monooxygenase (P08659 whole entry): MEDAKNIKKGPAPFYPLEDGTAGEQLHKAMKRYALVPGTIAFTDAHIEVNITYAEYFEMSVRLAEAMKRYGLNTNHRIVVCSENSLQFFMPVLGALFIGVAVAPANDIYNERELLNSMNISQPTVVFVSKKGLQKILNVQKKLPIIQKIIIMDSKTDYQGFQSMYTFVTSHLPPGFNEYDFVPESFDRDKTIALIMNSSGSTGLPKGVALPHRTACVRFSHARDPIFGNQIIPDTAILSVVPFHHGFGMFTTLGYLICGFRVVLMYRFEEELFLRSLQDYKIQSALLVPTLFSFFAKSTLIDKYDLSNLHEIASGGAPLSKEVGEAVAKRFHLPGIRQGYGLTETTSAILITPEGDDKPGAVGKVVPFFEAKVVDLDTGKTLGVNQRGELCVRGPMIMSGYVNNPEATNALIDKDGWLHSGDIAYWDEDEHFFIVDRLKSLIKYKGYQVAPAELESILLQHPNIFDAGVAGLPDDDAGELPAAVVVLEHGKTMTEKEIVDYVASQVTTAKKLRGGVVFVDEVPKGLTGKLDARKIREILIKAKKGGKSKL
Chain of Cytochrome P450 2C19 (P33261 whole entry): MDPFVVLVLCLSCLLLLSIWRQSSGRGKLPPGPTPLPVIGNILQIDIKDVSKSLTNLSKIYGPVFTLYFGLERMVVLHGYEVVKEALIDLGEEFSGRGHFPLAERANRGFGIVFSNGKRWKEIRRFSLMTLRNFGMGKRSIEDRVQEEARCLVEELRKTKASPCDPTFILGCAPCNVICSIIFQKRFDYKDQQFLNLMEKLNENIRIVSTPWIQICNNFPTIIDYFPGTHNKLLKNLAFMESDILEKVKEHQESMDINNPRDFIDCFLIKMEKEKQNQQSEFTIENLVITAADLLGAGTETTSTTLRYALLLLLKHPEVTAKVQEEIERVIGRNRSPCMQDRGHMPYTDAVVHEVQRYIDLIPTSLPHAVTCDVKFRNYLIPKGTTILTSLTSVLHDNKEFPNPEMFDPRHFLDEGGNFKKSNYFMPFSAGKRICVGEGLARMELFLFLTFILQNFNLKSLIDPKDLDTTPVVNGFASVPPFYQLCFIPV

O=C(Cn1ccnc1[N+](=O)[O-])N(CCO)CCO
inactive: GI50 (P388) > 1250 µM | GI50 (P388/ADR) > 1250 µM | GI50 (SN12K1) > 1250 µM

COc1cccc(-c2nc3c(C(=O)NCCN(C)C)cccc3[nH]2)c1
inactive: GI50 (P388) 4.45 µM | GI50 (P388/ADR) 13.7 µM | GI50 (SN12K1) 12.4 µM

O=C(NNC(=O)c1cccnc1SCc1cccc([N+](=O)[O-])c1)c1ccccn1
> 350 µM (not active): EC50 (cells [1])
active: EC50 (cells [2]) 27.8 µM | EC50 [3] 0.994 µM | AC50 [4] 1.9 µM | AC50 [5] 7.84 µM | AC50 [6] 1.32 µM | EC50 [7] 1.65 µM

CC1(C)CC2(CCO1)OC(=O)CC2C(=O)NCCc1ccccc1 (centres undefined)
inconclusive: AC50 (Cytochrome P450 3A4) 28.2 µM | AC50 (Cytochrome P450 2D6) 22.4 µM | AC50 (Cytochrome P450 2C19) 25.1 µM

O=NN(CCF)C(=O)NC1CC2CCC1C2 (centres undefined)
inactive: GI50 (P388) 15.8 µM | GI50 (P388/ADR) 24.5 µM | GI50 (SN12K1) > 100 µM

COC(=O)C(C/C=C(\C)c1ccccc1)C(C)=O (centres undefined)
inactive: GI50 (P388) 27.2 µM | GI50 (P388/ADR) 29 µM | GI50 (SN12K1) 45.2 µM

O=C(c1ccccc1O)c1cc(-c2ncc3c(=O)c4ccccc4oc3n2)c(-c2ccccc2O)[nH]c1=O
inactive: GI50 (P388) 19.7 µM | GI50 (P388/ADR) 22.4 µM | GI50 (SN12K1) 17.5 µM

O=C(CN1C(=O)c2ccccc2S1(=O)=O)c1ccc(F)c(F)c1
active: AC50 [8] 3.42 µM | AC50 [9] 9.41 µM | AC50 (HEK293) 6.76 µM

COC(=O)[C@]1(c2ccc(N(C)C)cc2OC)C[C@@H]2CCCN(CCc3c1[nH]c1ccccc31)C2
inactive: GI50 (P388) 16.7 µM | GI50 (P388/ADR) 18.1 µM | GI50 (SN12K1) 17.4 µM

CCOC(=O)C1=C(C(C)=O)CSC(c2ccccc2)=N1
inactive: GI50 (P388) > 100 µM | GI50 (P388/ADR) 68.5 µM | GI50 (SN12K1) > 100 µM

CCNc1ncc2nc(-c3ccc(F)cc3)c(=O)n(-c3ccc(OC)cc3)c2n1
inconclusive: AC50 (Cytochrome P450 3A4) 20 µM | AC50 (Cytochrome P450 2D6) 0.158 µM | AC50 (Cytochrome P450 1A2) 6.31 µM

CC(C)(C)n1nc(-c2ccc(Cl)cc2)c2c(N)ncnc21
inconclusive: AC50 (Cytochrome P450 2C9) 7.08 µM
active: EC50 [10] 7.3 µM | EC50 [11] 5.58 µM | EC50 [12] 12.4 µM | EC50 [13] 6.21 µM | EC50 [14] 23.3 µM | AC50 (HEK293) 12.2 µM

CCC/C=C(\CCC)C(NS(=O)(=O)c1ccc(C(F)(F)F)cc1)c1ccccc1 (centres undefined)
active: EC50 (Streptokinase A) 2.24 µM | AC50 [15] 3.36 µM | EC50 (Streptococcus) 22.5 µM | EC50 [16] 2.73 µM
inconclusive: AC50 (Cytochrome P450 2D6) 20 µM
